The values that follow come from article PMC11746142, “Structural plasticity of bacterial ESCRT-III protein PspA in higher-order assemblies” (Nature Structural & Molecular Biology, 2024).

Assay [1] has as its target T1, PspA (SynPspA, PspA wild type, slr1188) (Synechocystis sp. PCC 6803, UniProt P74717).
T1 construct: gene im30; 28 kDa band
Kind of assay: inhibition of ATPase activity. Type of assay: biochemical. The note with it: high concentration needed; against ATP hydrolysis; non-hydrolysable analogue.

For assay [2], the target named is T1, PspA (SynPspA, PspA wild type, slr1188). Kind of assay: inhibition of ATPase activity. Type of assay: biochemical. The note with it: high concentration needed; against ATP hydrolysis; non-hydrolysable analogue. This is another data set of the same source.
Assay [3] shares this target. Kind of assay: cryo-EM structure of helical rods. The format is binding. The note with it: rods refolded with 2 mM ATP, 4 mM MgCl2; ADP modelled in weak density, incomplete occupancy; site near α3/α4 loop between four chains; 180, 200, 215, 235 Å rods.
For assay [4], the target named is T2, PspF(1–275) (EcoPspF) (Escherichia coli, UniProt P37344).
T2 construct: residues 1-275, E. coli BL21 (DE3), pET50(b)-derived plasmid, Ni-NTA purified
T2 sequence (P37344 1-275): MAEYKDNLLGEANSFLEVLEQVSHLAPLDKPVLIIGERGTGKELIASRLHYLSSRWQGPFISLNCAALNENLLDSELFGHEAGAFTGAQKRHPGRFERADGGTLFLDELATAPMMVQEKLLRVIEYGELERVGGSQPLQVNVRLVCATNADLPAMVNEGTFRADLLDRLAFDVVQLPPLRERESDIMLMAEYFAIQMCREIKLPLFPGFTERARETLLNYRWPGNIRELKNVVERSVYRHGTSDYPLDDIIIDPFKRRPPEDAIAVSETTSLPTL
Kind of assay: ATPase activity. The note with it: comparison ATPase. The format is biochemical.

Assay [5] deals with T3, PspA (SynPspA, PspA wild type, slr1188) (Synechocystis sp. PCC 6803, UniProt P74717, R44K/E126Q/E179Q).
T3 construct: gene im30; 28 kDa band
T3 sequence (P74717 entry or part of it R44K/E126Q/E179Q): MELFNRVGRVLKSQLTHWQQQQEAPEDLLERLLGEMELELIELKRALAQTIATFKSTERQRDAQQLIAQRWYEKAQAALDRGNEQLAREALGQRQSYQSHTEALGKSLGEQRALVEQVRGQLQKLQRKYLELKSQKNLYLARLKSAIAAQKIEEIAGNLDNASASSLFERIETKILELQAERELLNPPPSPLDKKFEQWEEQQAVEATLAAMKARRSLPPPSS
Kind of assay: bound nucleotide by HPLC-MS/MS after washing; malachite-green ATPase. Type of assay: biochemical. The note with it: 2 mM ATP, 4 mM MgCl2, 10 mM Tris-HCl pH 8.0, 37 °C, 24 h.

The target in assay [6] is T1, PspA (SynPspA, PspA wild type, slr1188). Kind of assay: malachite-green phosphate release; ADP-Glo; bound nucleotide by HPLC-MS/MS. The format is biochemical. The note with it: 2 mM ATP, 4 mM MgCl2, 10 mM Tris-HCl pH 8.0, 37 °C.
Assay [7] concerns the target T4, PspA α1–α5 (Synechocystis sp. PCC 6803, UniProt P74717).
T4 construct: gene im30; helix α0 removed (amino acids 1-23 in Methods; 'first 22 amino acids' in Results); 25 kDa band
Kind of assay: malachite-green phosphate release; ADP-Glo. The format is biochemical. The note with it: 2 mM ATP, 4 mM MgCl2, 10 mM Tris-HCl pH 8.0, 37 °C.

T1 sequence (P74717 entry or part of it): as the sequence (P74717 entry or part of it R44K/E126Q/E179Q) above, with K44R, Q126E, Q179E counted along it
T4 sequence (P74717 entry or part of it): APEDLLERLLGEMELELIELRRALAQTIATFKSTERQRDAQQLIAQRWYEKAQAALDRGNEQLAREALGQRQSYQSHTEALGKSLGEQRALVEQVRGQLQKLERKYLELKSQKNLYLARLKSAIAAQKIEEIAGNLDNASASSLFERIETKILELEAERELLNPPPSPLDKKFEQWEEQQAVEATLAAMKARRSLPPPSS

Regarding `Nc1ncnc2c1ncn2[C@@H]1O[C@H](COP(=O)(O)OP(=O)(O)CP(=O)(O)O)[C@@H](O)[C@H]1O` [AMPPCP], in assay [1], the “ATPase activity vs AMPPCP concentration” value is “could be decreased by high concentrations of ATPase inhibitors such as ATPγS or AMPPCP”.
As to `Nc1ncnc2c1ncn2[C@@H]1O[C@H](COP(=O)(O)OP(=O)(O)OP(O)(O)=S)[C@@H](O)[C@H]1O` [ATPγS], in assay [2], the “ATPase activity vs ATPγS concentration” value is reported as “could be decreased by high concentrations of ATPase inhibitors such as ATPγS or AMPPCP”.
Regarding `Nc1ncnc2c1ncn2[C@@H]1O[C@H](COP(=O)(O)OP(=O)(O)O)[C@@H](O)[C@H]1O` [ADP], in assay [3], the “cryo-EM structure of helical rods” value was “Models of PspA apo (PDB:7ABK) and PspA+ATP with an ADP model fitted”.
Consider `Nc1ncnc2c1ncn2[C@@H]1O[C@H](COP(=O)(O)OP(=O)(O)OP(=O)(O)O)[C@@H](O)[C@H]1O` [ATP], for which the ATPase activity entry in assay [4] is given as “approximately ten times lower than bona fide AAA+ ATPases, such as E. coli PspF”. In assay [5], the “bound nucleotide by HPLC-MS/MS after washing; malachite-green ATPase” value is “R44K/E126Q/E179Q mutant was still capable of ATP binding and hydrolysis”. Besides, in assay [6], the “malachite-green phosphate release; ADP-Glo; bound nucleotide by HPLC-MS/MS” value is “PspA can bind and hydrolyze ATP”. Further, in assay [7], the “malachite-green phosphate release; ADP-Glo” value was “did not significantly reduce the ATPase activity”.
